According to ChEMBL document CHEMBL4387718, “Design, synthesis of orally bioavailable novel anaplastic lymphoma kinase (ALK) inhibitor diphenylaminopyrimidine analogs and efficacy study on NCI-H2228 xenografts mice model” (Bioorg Med Chem Lett, 2019):
Each block holds one compound with its values, some of them ahead of it.

Legend:
NCI-H3122 = assay: Growth inhibition of human NCI-H3122 cells; type: functional, cell-based
NCI-H2228 [1] = assay: Growth inhibition of human NCI-H2228 cells; type: functional, cell-based
[2] = AUC (0 to t) in SCID Beige nude mouse xenografted with human NCI-H2228 cells harboring EML4-fused ALK variant at 3 to 30 mg/kg, po administered once daily for 14 days; type: ADME, organism-based; settings: in vivo, 336 h
[3] = Tmax in SCID Beige nude mouse xenografted with human NCI-H2228 cells harboring EML4-fused ALK variant at 3 to 30 mg/kg, po administered once daily for 14 days; type: ADME, organism-based; settings: in vivo
[4] = molecular target: ALK tyrosine kinase receptor (Homo sapiens, UniProt Q9UM73); assay: Inhibition of wild-type ALK (unknown origin)
NCI-H2228 [5] = assay: Antitumor activity against human NCI-H2228 cells harboring EML4-fused ALK variant xenografted in SCID Beige nude mouse assessed as tumor growth inhibition at 10 mg/kg, po administered once daily for 14 days measured twice per week for 21 days during compound dosing relative to control; type: functional; settings: read-out: TGI
[6] = Cmax in SCID Beige nude mouse xenografted with human NCI-H2228 cells harboring EML4-fused ALK variant at 3 to 30 mg/kg, po administered once daily for 14 days; type: ADME, organism-based; settings: in vivo
[7] = molecular target: ALK tyrosine kinase receptor (Homo sapiens, UniProt Q9UM73, L1196M); assay: Inhibition of ALK L1196M mutant (unknown origin)
[8] = molecular target: ALK tyrosine kinase receptor (Homo sapiens, UniProt Q9UM73, F1174L); assay: Inhibition of ALK F1174L mutant (unknown origin)
[9] = Toxicity in SCID Beige nude mouse xenografted with human NCI-H2228 cells harboring EML4-fused ALK variant assessed as change in body weight at 30 mg/kg, po administered once daily for 14 days and measured twice per week for 14 days during compound dosing; type: organism-based; settings: in vivo, 336 h
NCI-H2228 [10] = assay: Antitumor activity against human NCI-H2228 cells harboring EML4-fused ALK variant xenografted in SCID Beige nude mouse assessed as tumor growth inhibition at 30 mg/kg, po administered once daily for 14 days measured twice per week for 21 days during compound dosing relative to control; type: functional; settings: read-out: TGI
[11] = Oral bioavailability in SCID Beige nude mouse xenografted with human NCI-H2228 cells harboring EML4-fused ALK variant at 3 to 30 mg/kg administered once daily for 14 days relative to control; type: ADME, organism-based; settings: in vivo
NCI-H2228 [12] = assay: Antitumor activity against human NCI-H2228 cells harboring EML4-fused ALK variant xenografted in po dosed SCID Beige nude mouse assessed as tumor growth inhibition administered once daily for 14 days measured twice a week for 21 days during compound dosing; type: functional, organism-based; settings: tested as the 2H-labelled form

ALK tyrosine kinase receptor (Homo sapiens, UniProt Q9UM73), sequence (Q9UM73 whole entry, the tested form may be a part): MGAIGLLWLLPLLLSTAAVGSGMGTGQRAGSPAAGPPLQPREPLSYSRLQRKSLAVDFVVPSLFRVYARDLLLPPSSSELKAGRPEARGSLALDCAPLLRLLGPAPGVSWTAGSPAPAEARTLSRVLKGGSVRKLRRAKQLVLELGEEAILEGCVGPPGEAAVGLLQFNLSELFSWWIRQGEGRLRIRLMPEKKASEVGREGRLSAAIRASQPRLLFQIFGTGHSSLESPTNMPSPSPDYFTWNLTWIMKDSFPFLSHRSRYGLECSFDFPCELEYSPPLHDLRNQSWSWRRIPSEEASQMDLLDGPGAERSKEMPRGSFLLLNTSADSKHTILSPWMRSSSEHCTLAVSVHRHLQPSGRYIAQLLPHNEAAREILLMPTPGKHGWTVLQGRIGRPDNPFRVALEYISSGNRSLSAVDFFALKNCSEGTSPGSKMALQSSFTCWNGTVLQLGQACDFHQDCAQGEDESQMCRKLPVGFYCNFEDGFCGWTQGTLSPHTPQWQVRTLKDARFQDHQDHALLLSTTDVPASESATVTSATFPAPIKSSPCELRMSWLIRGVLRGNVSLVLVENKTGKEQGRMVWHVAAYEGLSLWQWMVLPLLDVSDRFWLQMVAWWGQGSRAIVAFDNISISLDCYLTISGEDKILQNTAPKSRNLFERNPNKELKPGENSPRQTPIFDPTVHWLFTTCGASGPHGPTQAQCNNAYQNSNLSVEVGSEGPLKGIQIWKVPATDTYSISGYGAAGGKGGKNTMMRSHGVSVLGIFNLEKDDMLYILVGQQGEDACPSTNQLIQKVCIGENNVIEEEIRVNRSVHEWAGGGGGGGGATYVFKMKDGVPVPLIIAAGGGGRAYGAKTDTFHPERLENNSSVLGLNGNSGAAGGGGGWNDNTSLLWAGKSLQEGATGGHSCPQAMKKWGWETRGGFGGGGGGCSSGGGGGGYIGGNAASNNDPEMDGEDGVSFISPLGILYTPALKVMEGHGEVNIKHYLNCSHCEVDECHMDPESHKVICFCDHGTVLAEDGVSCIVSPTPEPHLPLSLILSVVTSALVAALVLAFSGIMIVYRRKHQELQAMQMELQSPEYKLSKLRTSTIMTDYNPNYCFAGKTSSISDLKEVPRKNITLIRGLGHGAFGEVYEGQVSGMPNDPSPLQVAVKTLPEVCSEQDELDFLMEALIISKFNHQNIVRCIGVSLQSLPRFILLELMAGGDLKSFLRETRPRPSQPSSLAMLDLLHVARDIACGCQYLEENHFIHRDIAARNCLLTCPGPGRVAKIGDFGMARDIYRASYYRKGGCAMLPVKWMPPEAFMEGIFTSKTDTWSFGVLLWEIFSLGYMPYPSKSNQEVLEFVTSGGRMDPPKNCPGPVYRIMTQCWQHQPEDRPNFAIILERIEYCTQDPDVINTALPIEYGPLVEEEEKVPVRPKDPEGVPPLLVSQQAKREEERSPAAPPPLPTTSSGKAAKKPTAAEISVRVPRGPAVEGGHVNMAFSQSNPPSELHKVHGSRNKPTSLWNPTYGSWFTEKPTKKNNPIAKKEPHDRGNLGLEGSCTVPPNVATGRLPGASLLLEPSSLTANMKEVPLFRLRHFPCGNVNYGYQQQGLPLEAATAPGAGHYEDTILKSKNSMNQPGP
ALK tyrosine kinase receptor (Homo sapiens, UniProt Q9UM73, L1196M), sequence (Q9UM73 19-1620 L1196M limits assumed): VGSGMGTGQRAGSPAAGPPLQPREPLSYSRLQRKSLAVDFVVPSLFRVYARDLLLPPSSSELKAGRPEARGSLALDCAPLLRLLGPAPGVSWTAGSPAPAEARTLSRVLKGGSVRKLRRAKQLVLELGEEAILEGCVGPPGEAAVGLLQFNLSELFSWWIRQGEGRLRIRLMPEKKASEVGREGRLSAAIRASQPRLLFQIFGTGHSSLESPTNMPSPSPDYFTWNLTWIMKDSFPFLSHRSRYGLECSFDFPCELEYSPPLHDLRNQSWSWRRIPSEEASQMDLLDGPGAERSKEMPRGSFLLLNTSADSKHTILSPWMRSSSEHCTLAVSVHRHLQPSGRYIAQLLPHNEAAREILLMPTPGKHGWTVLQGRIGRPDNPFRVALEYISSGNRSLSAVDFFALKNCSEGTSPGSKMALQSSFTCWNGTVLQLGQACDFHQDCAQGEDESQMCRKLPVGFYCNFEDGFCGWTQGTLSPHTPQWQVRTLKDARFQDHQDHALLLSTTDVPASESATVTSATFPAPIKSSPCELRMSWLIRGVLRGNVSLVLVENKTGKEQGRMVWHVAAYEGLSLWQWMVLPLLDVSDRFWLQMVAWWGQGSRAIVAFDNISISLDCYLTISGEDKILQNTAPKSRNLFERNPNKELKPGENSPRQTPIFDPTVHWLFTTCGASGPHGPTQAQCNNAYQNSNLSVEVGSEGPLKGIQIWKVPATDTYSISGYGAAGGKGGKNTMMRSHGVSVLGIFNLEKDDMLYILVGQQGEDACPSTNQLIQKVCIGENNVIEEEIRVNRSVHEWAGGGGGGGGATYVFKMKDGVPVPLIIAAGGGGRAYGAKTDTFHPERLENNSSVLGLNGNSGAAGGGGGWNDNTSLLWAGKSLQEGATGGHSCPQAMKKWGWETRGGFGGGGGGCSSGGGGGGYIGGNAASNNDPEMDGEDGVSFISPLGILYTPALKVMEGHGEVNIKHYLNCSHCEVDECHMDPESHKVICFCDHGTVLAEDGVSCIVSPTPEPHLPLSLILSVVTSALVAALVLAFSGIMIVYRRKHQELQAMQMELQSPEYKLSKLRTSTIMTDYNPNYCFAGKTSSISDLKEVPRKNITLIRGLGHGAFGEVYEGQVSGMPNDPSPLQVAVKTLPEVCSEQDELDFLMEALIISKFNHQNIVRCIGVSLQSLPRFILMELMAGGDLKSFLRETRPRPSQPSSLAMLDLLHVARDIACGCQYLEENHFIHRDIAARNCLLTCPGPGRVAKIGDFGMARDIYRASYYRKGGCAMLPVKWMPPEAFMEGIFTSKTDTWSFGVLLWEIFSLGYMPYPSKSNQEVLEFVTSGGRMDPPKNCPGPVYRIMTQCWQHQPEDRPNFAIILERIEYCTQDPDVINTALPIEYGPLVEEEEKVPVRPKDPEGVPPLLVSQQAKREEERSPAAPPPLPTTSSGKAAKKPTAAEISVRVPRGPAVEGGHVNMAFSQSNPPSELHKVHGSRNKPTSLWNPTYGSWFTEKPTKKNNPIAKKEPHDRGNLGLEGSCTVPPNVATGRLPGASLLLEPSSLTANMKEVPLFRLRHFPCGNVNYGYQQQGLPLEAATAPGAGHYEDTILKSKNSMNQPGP
ALK tyrosine kinase receptor (Homo sapiens, UniProt Q9UM73, F1174L), sequence (Q9UM73 19-1620 F1174L limits assumed): as the sequence (Q9UM73 19-1620 L1196M limits assumed) above, with F1156L, M1178L counted along it

IC50 (NCI-H3122): 24.7 nM | IC50 (NCI-H2228 [1]): 98.5 nM
Compound: [2H]c1c(C)c(C2CCNCC2)cc(OC(C)C)c1Nc1ncc(Cl)c(Nc2ccccc2S(=O)(=O)C(C)C)n1

IC50 (NCI-H3122): 28.5 nM | IC50 (NCI-H2228 [1]): 97 nM
Compound: [2H]c1ccc(Nc2nc(Nc3cc(C)c(C4CCNCC4)cc3OC(C)C)ncc2Cl)c(S(=O)(=O)C(C)C)c1

AUCt [2]: 6980 ng·h/mL | Tmax [3]: 6 to 8 h | IC50 [4]: 71 nM | IC50 (NCI-H3122): 4 nM | Cmax [6]: 508 ng/mL | IC50 [7]: 18.7 nM | IC50 [8]: 36.8 nM | IC50 (NCI-H2228 [1]): 41.3 nM | bioavailability [11]: 60%
Compound: [2H]C([2H])([2H])Oc1cc(C2CCNCC2)c(C)cc1Nc1ncc(Cl)c(Nc2ccccc2S(=O)(=O)C(C)C)n1
inhibition in vivo at 10 mg/kg (NCI-H2228 [5]): 53% | Activity [9]: Non-Toxic | inhibition in vivo at 30 mg/kg (NCI-H2228 [10]): 77%

IC50 (NCI-H3122): 27.2 nM | IC50 (NCI-H2228 [1]): 97 nM
Compound: Cc1cc(Nc2ncc(Cl)c(Nc3ccccc3S(=O)(=O)C(C)C)n2)c(OC(C)C)cc1C1CCNCC1 [CERITINIB]
inhibition in vivo at 10 mg/kg (NCI-H2228 [5]): 26%

IC50 [4]: 106 nM | IC50 (NCI-H3122): 6 nM | IC50 [7]: 37 nM | IC50 [8]: 51.6 nM | IC50 (NCI-H2228 [1]): 45.5 nM
Compound: [2H]C([2H])([2H])C([2H])([2H])Oc1cc(C2CCNCC2)c(C)cc1Nc1ncc(Cl)c(Nc2ccccc2S(=O)(=O)C(C)C)n1

Compound: COc1cc(C2CCNCC2)c(C)cc1Nc1ncc(Cl)c(Nc2ccccc2S(=O)(=O)C(C)C)n1
TGI (NCI-H2228 [12]): Dose-dependent effect

IC50 (NCI-H3122): 28.4 nM | IC50 (NCI-H2228 [1]): 111 nM
Compound: [2H]C([2H])([2H])C([2H])(Oc1cc(C2CCNCC2)c(C)cc1Nc1ncc(Cl)c(Nc2ccccc2S(=O)(=O)C(C)C)n1)C([2H])([2H])[2H]
